Where “and” joins values, the source holds several entries; their conditions need not be identical. Identical values can stand only once. Inconclusive results and toxic doses are left out.
System: P388 leukemia ip, CD2F1 mice, survival T/C
Assay: NCI In Vivo Anticancer Drug Screen. Data for tumor model P388 Leukemia (intraperitoneal) in CD2F1 (CDF1) mice
Conditions: endpoint: median survival time, higher = longer survival
Procedure, shortened: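 Mice carrying the transplanted tumor received test compound or vehicle. Survival was recorded in each group, and the value is the treated-group measurement divided by that of the vehicle-treated control group.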

O=c1cc[nH]c(=O)o1
T/C (dose: 6.25 mg/kg/injection, schedule: Q01DX009 (ip), vehicle: water): 108 % of control | T/C (dose: 12.5 mg/kg/injection, schedule: Q01DX009 (ip), vehicle: water): 119 % of control | T/C (dose: 25.0 mg/kg/injection, schedule: Q01DX009 (ip), vehicle: water): 124 % of control | T/C (dose: 50.0 mg/kg/injection, schedule: Q01DX009 (ip), vehicle: water): 121 % of control

CCOC(=O)c1ccc(N2C(=O)C3C4C=CC(O4)C3C2=O)cc1 (stereo unspecified)
T/C (dose: 100.0 mg/kg/injection, schedule: Q04DX003 (ip), vehicle: Klucel (hydroxypropylcellulose) (HPC)): 112 % of control | T/C (dose: 200.0 mg/kg/injection, schedule: Q04DX003 (ip), vehicle: Klucel (hydroxypropylcellulose) (HPC)): 105 % of control | T/C (dose: 400.0 mg/kg/injection, schedule: Q04DX003 (ip), vehicle: Klucel (hydroxypropylcellulose) (HPC)): 111 % of control

CSc1cc(C)c(O)c(C)c1
T/C (dose: 100.0 mg/kg/injection, schedule: Q04DX003 (ip), vehicle: other): 109 % of control | T/C (dose: 200.0 mg/kg/injection, schedule: Q04DX003 (ip), vehicle: other): 100 % of control | T/C (dose: 400.0 mg/kg/injection, schedule: Q04DX003 (ip), vehicle: other): 100 % of control

Cc1ccccc1-c1cc2ccccc2c(N)n1
T/C (dose: 6.25 mg/kg/injection, schedule: Q01DX009 (ip), vehicle: saline with Tween-80): 118 % of control | T/C (dose: 12.5 mg/kg/injection, schedule: Q01DX009 (ip), vehicle: saline with Tween-80): 99 % of control

CN(C)c1ccc(/C=N/NC(=O)c2ccccc2N)cc1
T/C (dose: 60.0 mg/kg/injection, schedule: Q01DX005 (ip), vehicle: saline with Tween-80): 103 % of control | T/C (dose: 120.0 mg/kg/injection, schedule: Q01DX005 (ip), vehicle: saline with Tween-80): 100 % of control | T/C (dose: 240.0 mg/kg/injection, schedule: Q01DX005 (ip), vehicle: saline with Tween-80): 98 % of control

CCN(CC)C(C)CN1c2ccccc2Sc2ccccc21 (stereo unspecified)
T/C (dose: 50.0 mg/kg/injection, schedule: Q01DX005 (ip), vehicle: saline): 100 % of control | T/C (dose: 100.0 mg/kg/injection, schedule: Q01DX005 (ip), vehicle: saline): 99 % of control | T/C (dose: 200.0 mg/kg/injection, schedule: Q01DX005 (ip), vehicle: saline): 100 % of control

COc1ccc2c([O-])c3[n+](cc2c1OC)CCc1cc2c(cc1-3)OCO2
T/C (dose: 50.0 mg/kg/injection, schedule: Q04DX002 (ip), vehicle: saline with Tween-80): 103 % of control | T/C (dose: 100.0 mg/kg/injection, schedule: Q04DX002 (ip), vehicle: saline with Tween-80): 106 % of control | T/C (dose: 200.0 mg/kg/injection, schedule: Q04DX002 (ip), vehicle: saline with Tween-80): 102 % of control

CC(CN(C)C)C(/C=C/c1ccc(Cl)cc1)=N\NC(=O)c1ccccc1 (stereo unspecified)
T/C (dose: 15.0 mg/kg/injection, schedule: Q01DX005 (ip), vehicle: saline): 101 % of control | T/C (dose: 30.0 mg/kg/injection, schedule: Q01DX005 (ip), vehicle: saline): 100 % of control | T/C (dose: 60.0 mg/kg/injection, schedule: Q01DX005 (ip), vehicle: saline): 104 % of control and 121 % of control | T/C (dose: 120.0 mg/kg/injection, schedule: Q01DX005 (ip), vehicle: saline): 114 % of control

NC(=S)N/N=C/c1cc(-c2cccc(N)c2)ccn1
T/C (dose: 6.25 mg/kg/injection, schedule: Q01DX009 (ip), vehicle: saline): 121 % of control | T/C (dose: 9.4 mg/kg/injection, schedule: Q04DX003 (ip), vehicle: saline): 109 % of control | T/C (dose: 18.8 mg/kg/injection, schedule: Q04DX003 (ip), vehicle: saline): 122 % of control | T/C (dose: 25.0 mg/kg/injection, schedule: Q01DX009 (ip), vehicle: saline with Tween-80): 119 % of control | T/C (dose: 25.0 mg/kg/injection, schedule: Q01DX009 (ip), vehicle: saline): 150 % of control | T/C (dose: 50.0 mg/kg/injection, schedule: Q01DX009 (ip), vehicle: saline with Tween-80): 122 % of control | T/C (dose: 50.0 mg/kg/injection, schedule: Q01DX009 (ip), vehicle: saline): 154 % of control | T/C (dose: 75.0 mg/kg/injection, schedule: Q01DX009 (ip), vehicle: saline with Tween-80): 111 % of control and 122 % of control | T/C (dose: 75.0 mg/kg/injection, schedule: Q01DX009 (ip), vehicle: saline): 158 % of control | T/C (dose: 150.0 mg/kg/injection, schedule: Q04DX003 (ip), vehicle: saline): 123 % of control

CC1NCCc2c1[nH]c1ccccc21 (stereo unspecified)
T/C (dose: 12.5 mg/kg/injection, schedule: Q01DX005 (ip), vehicle: Klucel (hydroxypropylcellulose) (HPC)): 101 % of control | T/C (dose: 25.0 mg/kg/injection, schedule: Q01DX005 (ip), vehicle: Klucel (hydroxypropylcellulose) (HPC)): 97 % of control | T/C (dose: 50.0 mg/kg/injection, schedule: Q01DX005 (ip), vehicle: Klucel (hydroxypropylcellulose) (HPC)): 101 % of control and 97 % of control

N#C/C(=C\c1c[nH]c2ccccc12)C(N)=O
T/C (dose: 100.0 mg/kg/injection, schedule: Q04DX003 (ip), vehicle: saline with Tween-80): 100 % of control | T/C (dose: 200.0 mg/kg/injection, schedule: Q04DX003 (ip), vehicle: saline with Tween-80): 100 % of control | T/C (dose: 400.0 mg/kg/injection, schedule: Q04DX003 (ip), vehicle: saline with Tween-80): 100 % of control
